The subject of one assay is NCI-H929. In words: Cytostatic activity on human multiple myeloma cell line NCI-H929 (WST-1). It counts as cell-based. The settings on record: 10 μmol/L, 72 hours; for inhibition at 10 µM: Homo sapiens, NCI-H929, 72 h, read-out: cytostatic rate (%) H929 (10 μmol/L). The protocol: (§1) The cytostatic rates of a test compound on human multiple myeloma cell lines NCI-H929 and KMS-11, were determined in the following manner.
(§2) For culturing NCI-H929, Roswell Park Memorial Institute's Medium (RPMI) 1640 (Gibco, Catalog No. 11875-093) containing 15% fetal bovine serum (Gibco, Catalog No. 10099-141), 1 mmol/L sodium pyruvate (Gibco, Catalog No. 11360-070), 10 mmol/L HEPES (Gibco, Catalog No. 15630-80), 4.5 g/L glucose (Sigma, Catalog No. G8769), 0.05 mmol/L 2-mercaptethanol (Nacalai Tesque, Catalog No. 21418-42) and penicillin/streptomycin (1:1) (Gibco, Catalog No. 15140-122) was used. For culturing KMS-11 cell, RPMI 1640 medium containing 10% fetal bovine serum and penicillin/streptomycin (1:1) was used. Each 80 μL of the NCI-H929 cell having a concentration of 1×10^5 cells/mL (or the KMS-11 cell having a concentration of 7.5×10^4 cells/mL) was inoculated to wells of a TC MICROWELL 96U plate (Nalge Nunc International, Catalog No. 163320) and was cultured in a 5% carbon dioxide gas incubator at 37° C. for 24 hours. Each 20 μL of a solution of the test compound in dimethyl sulfoxide (DMSO) which was prepared to make the final concentration to 1 μmol/L or 10 μmol/L, was added to each well. Each 20 μL of DMSO was added to the control well and the blank well to a final concentration of 0.1%. After adding the test compound, the cells were incubated in a 5% carbon dioxide gas incubator at 37° C. for 72 hours except for the blank well. After adding 20 μL of WST-1 reagent {4-[3-(4-iodophenyl)-2-(4-nitrophenyl)-2H-5-tetrazolio]-1,3-benzene disulfonate sodium salt} (Roche Diagnostics K.K., Catalog No. 1644807), which was diluted to 50% by RPMI medium to each well, the cells were further incubated at 37° C. for 2 hours. Then, the absorbances at 450 nm (reference wavelength: 690 nm) were measured with a microplate spectrophotometer SPECTRA max 340PC (Molecular Devices Corporation). The relative growth (%) of a well to which the test compound had been added and cultured for 72 hours was determined while setting the absorbance of a well to which not the test compound but DMSO alone had been added and cultured for 72 hours (control) as 100% and that of a well where the drugs are added (blank) as 0%. The cytostatic rate (%) of the test compound was determined by subtracting the calculated relative growth from 100.

A further assay concerns KMS-11. Put plainly: Cytostatic activity on human multiple myeloma cell line KMS-11 (WST-1). It counts as cell-based. Conditions: 10 μmol/L, 72 hours; for inhibition at 10 µM: Homo sapiens, KMS-11, 72 h, read-out: cytostatic rate (%) KMS-11 (10 μmol/L). The protocol:
as §1, §2
In general terms: Tetrazolium dyes change colour on reduction, which living cells bring about.

The target in a further assay is T1, IGF-1R (Homo sapiens, UniProt P08069).
T1 construct: purchased Upstate Co. 14-465
Put plainly: IGF-1R inhibitory activity (kinase reaction, time-resolved fluoroimmunoassay). It counts as biochemical. Conditions: IGF-1R active recombinant enzyme, test compound 10 μmol/L. In outline: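 Compounds were tested at a single 10 μmol/L concentration. Each was incubated with recombinant IGF-1R (200 μg/L), 10 mmol/L ATP, MgCl2/MnCl2 and Na3VO4 (pH 7.5) on immobilized poly(Glu-Tyr) peptide for 30 min at 24° C. Eu-anti-phosphotyrosine time-resolved fluorescence (340/615 nm) gave relative activity against no-compound and no-enzyme wells, reported as % inhibition.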

This note sets out measurements from patent publication US7605272B2, “IGF-1R inhibitor” (Kyowa Hakko Kirin Co., Ltd., priority 2005, dated 2009).

T1 sequence (P08069 959-1367 limits assumed): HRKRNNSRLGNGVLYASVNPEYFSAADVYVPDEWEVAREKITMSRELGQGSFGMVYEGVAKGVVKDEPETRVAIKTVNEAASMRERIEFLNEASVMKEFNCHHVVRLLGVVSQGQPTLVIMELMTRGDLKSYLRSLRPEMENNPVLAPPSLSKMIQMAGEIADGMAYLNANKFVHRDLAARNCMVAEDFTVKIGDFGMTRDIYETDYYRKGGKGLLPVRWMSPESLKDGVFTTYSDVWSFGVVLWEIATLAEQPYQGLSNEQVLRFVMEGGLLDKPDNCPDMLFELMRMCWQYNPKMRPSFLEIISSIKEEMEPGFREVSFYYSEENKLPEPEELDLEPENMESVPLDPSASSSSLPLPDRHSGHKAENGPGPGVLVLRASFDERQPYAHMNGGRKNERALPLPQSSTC

Regarding `COc1ccccc1C(=O)Nc1ccccc1/C=C/c1n[nH]c2ccccc12` [Compound 20, (E)-N-{2-[2-(1H-indazol-3-yl)vinyl]phenyl}-2-methoxybenzamide], the results for the inhibition at 10 µM in the assay on NCI-H929, in the assay with KMS-11 and at IGF-1R were 130%, 107% and 97.3%, respectively.

For `CCNC(=O)Nc1ccccc1/C=C/c1n[nH]c2ccccc12` [Compound 21, (E)-1-ethyl-3-{2-[2-(1H-indazol-3-yl)vinyl]phenyl}urea], the inhibition at 10 µM is 114% in the assay on NCI-H929, 94% in the assay with KMS-11 and 88.2% on IGF-1R.

As to `O=C(Nc1ccccc1/C=C/c1n[nH]c2ccccc12)C1CCCCC1` [Compound 23, (E)-N-{2-[2-(1H-indazol-3-yl)vinyl]phenyl}cyclohexanecarboxamide], the figures for the inhibition at 10 µM with NCI-H929, in the assay with KMS-11 and on IGF-1R were 130%, 109% and 95.4%, respectively.

For the compound `O=C(Nc1ccccc1/C=C/c1n[nH]c2ccccc12)C1CCCC1` [Compound 24, (E)-N-{2-[2-(1H-indazol-3-yl)vinyl]phenyl}cyclopentanecarboxamide], the inhibition at 10 µM in the assay on NCI-H929 was 116%; in the assay with KMS-11 it was 110%; on IGF-1R, 97.4%.

In the case of `O=C(Cc1cccs1)Nc1ccccc1/C=C/c1n[nH]c2ccccc12` [Compound 25, (E)-N-{2-[2-(1H-indazol-3-yl)vinyl]phenyl}-2-(thiophen-2-yl)acetamide], the inhibition at 10 µM came to 116% in the assay with NCI-H929, 106% in the assay on KMS-11 and 86% on IGF-1R.

Consider `CN(C)c1cccc(C(=O)Nc2ccccc2/C=C/c2n[nH]c3ccccc23)c1` [Compound 27, (E)-3-dimethylamino-N-{2-[2-(1H-indazol-3-yl)vinyl]phenyl}benzamide], for which the inhibition at 10 µM in the assay on NCI-H929 came to 119%; in the assay with KMS-11, 114%; at IGF-1R, 99.3%.

Regarding `O=C(Nc1ccccc1/C=C/c1n[nH]c2ccccc12)c1cnccn1` [Compound 28, (E)-N-{2-[2-(1H-indazol-3-yl)vinyl]phenyl}pyrazine-2-carboxamide], the inhibition at 10 µM came to 116% with NCI-H929, 109% with KMS-11 and 95.2% on IGF-1R.

As to `Cc1ccccc1C(=O)Nc1ccccc1/C=C/c1n[nH]c2ccccc12` [Compound 30, (E)-N-{2-[2-(1H-indazol-3-yl)vinyl]phenyl}-2-methylbenzamide], the inhibition at 10 µM amounted to 115% with NCI-H929, 115% with KMS-11 and 97.6% at IGF-1R.

As to `O=C(Nc1ccccc1/C=C/c1n[nH]c2ccccc12)c1ccsc1` [Compound 31, (E)-N-{2-[2-(1H-indazol-3-yl)vinyl]phenyl}thiophene-3-carboxamide], the inhibition at 10 µM in the assay with NCI-H929 turned out to be 114%; with KMS-11 it was 117%; on IGF-1R it was 99.7%.

For `O=C(Nc1ccccc1/C=C/c1n[nH]c2ccccc12)C1CCCO1` (stereo not drawn) [Compound 32, (E)-N-{2-[2-(1H-indazol-3-yl)vinyl]phenyl}tetrahydrofuran-2-carboxamide], the inhibition at 10 µM is 113% in the assay with NCI-H929, 126% in the assay on KMS-11 and 98.6% at IGF-1R.

Turning to `O=C(Nc1ccccc1/C=C/c1n[nH]c2ccccc12)C1CC1` [Compound 33, (E)-N-{2-[2-(1H-indazol-3-yl)vinyl]phenyl}cyclopropanecarboxamide], the inhibition at 10 µM in the assay with NCI-H929 came to 108%; in the assay on KMS-11, 115%; at IGF-1R, 92.4%.

For `O=C(Nc1ccccc1/C=C/c1n[nH]c2ccccc12)c1ccc(Br)s1` [Compound 34, (E)-5-bromo-N-{2-[2-(1H-indazol-3-yl)vinyl]phenyl}thiophene-2-carboxamide], the inhibition at 10 µM was found to be 113% in the assay with NCI-H929, 116% with KMS-11 and 99.2% at IGF-1R.

As to `O=C(Nc1ccccc1/C=C/c1n[nH]c2ccccc12)N1CCOCC1` [Compound 35, (E)-N-{2-[2-(1H-indazol-3-yl)vinyl]phenyl}morpholine-4-carboxamide], the inhibition at 10 µM stood at 110% with NCI-H929, 125% with KMS-11 and 98.4% at IGF-1R.

Take `O=C(Nc1ccccc1/C=C/c1n[nH]c2ccccc12)c1cscn1` [Compound 36, (E)-N-{2-[2-(1H-indazol-3-yl)vinyl]phenyl}thiazole-4-carboxamide]: the inhibition at 10 µM turned out to be 112% with NCI-H929, 116% in the assay with KMS-11 and 98.6% at IGF-1R.

As for `O=C(Nc1ccccc1/C=C/c1n[nH]c2ccccc12)c1ccno1` [Compound 37, (E)-N-{2-[2-(1H-indazol-3-yl)vinyl]phenyl}isoxazole-5-carboxamide], the results for the inhibition at 10 µM in the assay with NCI-H929, in the assay with KMS-11 and at IGF-1R were 112%, 112% and 99.1%, respectively.

For `O=C(CCc1cccs1)Nc1ccccc1/C=C/c1n[nH]c2ccccc12` [Compound 39, (E)-N-{2-[2-(1H-indazol-3-yl)vinyl]phenyl}-3-(thiophen-2-yl)propionamide], the inhibition at 10 µM in the assay on NCI-H929 turned out to be 68.8%; in the assay with KMS-11, 91%; at IGF-1R it was 59.1%.

Consider `Cc1ccc(C(=O)Nc2ccccc2/C=C/c2n[nH]c3ccccc23)s1` [Compound 40, (E)-N-{2-[2-(1H-indazol-3-yl)vinyl]phenyl}-5-methylthiophene-2-carboxamide], for which the inhibition at 10 µM is 125% in the assay with NCI-H929, 108% in the assay with KMS-11 and 98.8% on IGF-1R.

Take `O=C(Nc1ccccc1/C=C/c1n[nH]c2ccccc12)c1ccc[nH]1` [Compound 42, (E)-N-{2-[2-(1H-indazol-3-yl)vinyl]phenyl}-1H-pyrrole-2-carboxamide]: the inhibition at 10 µM in the assay on NCI-H929 was determined as 126%; in the assay with KMS-11, 109%; at IGF-1R, 98.9%.

Turning to `CC(=O)c1ccc(C(=O)Nc2ccccc2/C=C/c2n[nH]c3ccccc23)s1` [Compound 43, (E)-5-acetyl-N-{2-[2-(1H-indazol-3-yl)vinyl]phenyl}thiophene-2-carboxamide], the inhibition at 10 µM came out at 113% in the assay on NCI-H929, 112% in the assay on KMS-11 and 96.3% on IGF-1R.

As to `O=C(Nc1ccccc1/C=C/c1n[nH]c2ccccc12)C1CCC1` [Compound 44, (E)-N-{2-[2-(1H-indazol-3-yl)vinyl]phenyl}cyclobutanecarboxamide], the inhibition at 10 µM in the assay on NCI-H929 was determined as 115%; in the assay with KMS-11 it was 113%; on IGF-1R, 98%.

Take `CCC(O)(CC)C(=O)Nc1ccccc1/C=C/c1n[nH]c2ccccc12` [Compound 45, (E)-2-ethyl-2-hydroxy-N-{2-[2-(1H-indazol-3-yl)vinyl]phenyl}butylamide]: the “cytostatic rate (%) H929 (10 μmol/L)” value in the assay on NCI-H929 is reported as 115.0%. The “cytostatic rate (%) KMS-11 (10 μmol/L)” value with KMS-11 is listed as 98.3%. The “inhibitory activity (%) at 10 μmol/L” value on IGF-1R came to 97.4%.

Regarding `O=C(Nc1ccccc1)c1ccccc1/C=C/c1n[nH]c2ccccc12` [Compound 47, (E)-N-phenyl-2-[2-(1H-indazol-3-yl)vinyl]benzamide], the inhibition at 10 µM in the assay on NCI-H929 was determined as 100%; in the assay with KMS-11 it was 92.1%; on IGF-1R, 90.1%.

Regarding `Nc1ccn(C(=O)c2ccccc2/C=C/c2n[nH]c3ccccc23)n1` [Compound 48, (E)-3-amino-1-{2-[2-(1H-indazol-3-yl)vinyl]benzoyl}pyrazole], the inhibition at 10 µM stood at 111% in the assay with NCI-H929, 90.1% with KMS-11 and 99.3% at IGF-1R.

Regarding `Cn1cc([N+](=O)[O-])cc1C(=O)Nc1ccccc1/C=C/c1n[nH]c2ccccc12` [Compound 52, (E)-N-{2-[2-(1H-indazol-3-yl)vinyl]phenyl}-1-methyl-4-nitro-1H-pyrrole-2-carboxamide], the inhibition at 10 µM in the assay with NCI-H929 amounted to 119%; in the assay with KMS-11 it was 128%; on IGF-1R, 98.5%.
